Experiments:
BCL6 [1] = molecular target: T1, BCL6 (Homo sapiens (Human), UniProt P41182); assay: BCL6 TR-FRET assay (BCL6-Avitag-Biotin / BCoR-Cy5 peptide); type: binding
Outline: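 After 30 min room-temperature preincubation of compound titrations with 2 nM biotinylated BCL6-Avitag, 100 nM Cy5-labelled BCoR peptide plus 2 nM Eu-streptavidin were added and TR-FRET read 2 h later. HEPES pH 7.5/125 mM NaCl buffer with Triton X, glutathione (or DTT) and BSA.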

BCL6 [2] = molecular target: T1, BCL6; assay: Immunofluorescence high content imaging of BCL6 degradation in T47D cells; type: cell-based; settings: for Dmax: T47D; for DC50: class symbols A-D, read-out: EC50 (nM)*
Outline: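 Read-out is BCL6 immunofluorescence quantified by high-content imaging (10×, 4 fields per well) of T47D breast cancer cells. Cells were exposed for 3 days to degrader in an 11-point, 3-fold serial dilution reaching a final top concentration of 0.1 or 1 μM.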

[3] = class symbols A-D, read-out: IC50 (nM)***

Compound | EC50 (BCL6 [1]) | IC50 (BCL6 [2]) | Dmax (BCL6 [2]) | IC50 (BCL6 [1]; read-out: IC50) | further results
CNC(=O)COc1cc2cc(Nc3nc(N4CCN(CC(C)(C)N5CCN(c6ccc7c(c6)C(=O)N(C6CCC(=O)NC6=O)C7=O)CC5)CC4)ncc3Cl)ccc2n(C)c1=O (stereo not shown) [compound 280, 2-{[6-({5-chloro-2-[4-(2-{4-[2-(2,6-dioxopiperidin-3-yl)-1,3-dioxo-2,3-dihydro-1H-isoindol-5-yl]piperazin-1-yl}-2-methylpropyl)piperazin-1-yl]pyrimidin-4-yl}amino)-1-methyl-2-oxo-1,2-dihydroquinolin-3-yl]oxy}-N-methylacetamide] | 10 to 50 nM | 10 to 50 nM | 50 to 70% |  | 
CNC(=O)COc1cc2cc(Nc3nc(N4CCC(OCCOCCOCCOCCOCCOc5ccc6c(c5)CN(C5CCC(=O)NC5=O)C6=O)CC4)ncc3Cl)ccc2n(C)c1=O (stereo not shown) [compound 62, 2-((6-((5-chloro-2-(4-((14-((2-(2,6-dioxopiperidin-3-yl)-1-oxoisoindolin-5-yl)oxy)-3,6,9,12-tetraoxatetradecyl)oxy)piperidin-1-yl)pyrimidin-4-yl)amino)-1-methyl-2-oxo-1,2-dihydroquinolin-3-yl)oxy)-N-methylacetamide] |  |  |  |  | IC50 (BCL6 [1]; [3]): 10 to 50 nM; Dmax (BCL6 [2]; maximum, class symbols A-C): ≥ 70%; DC50 (BCL6 [2]): > 100 nM
CNC(=O)COc1cc2cc(Nc3nc(N4CCC(CN5CC6(CCN(c7ccc8c(c7)C(=O)N(C7CCC(=O)NC7=O)C8=O)C6)C5)CC4)ncc3Cl)ccc2n(C(C)C)c1=O (stereo not shown) [compound 500, 2-{[6-({5-chloro-2-[4-({6-[2-(2,6-dioxopiperidin-3-yl)-1,3-dioxo-2,3-dihydro-1H-isoindol-5-yl]-2,6-diazaspiro[3.4]octan-2-yl}methyl)piperidin-1-yl]pyrimidin-4-yl}amino)-2-oxo-1-(propan-2-yl)-1,2-dihydroquinolin-3-yl]oxy}-N-methylacetamide] |  |  | 50 to 70% | < 10 nM | 
Cn1c(=O)c(-n2ccnc2)cc2cc(Nc3nc(N4CCC(CN5CCN(c6ccc7c(c6)C(=O)N(C6CCC(=O)NC6=O)C7=O)CC5)CC4)ncc3Cl)ccc21 (stereo not shown) [compound 224, 5-(4-((1-(4-((3-(1H-imidazol-1-yl)-1-methyl-2-oxo-1,2-dihydroquinolin-6-yl)amino)-5-chloropyrimidin-2-yl)piperidin-4-yl)methyl)piperazin-1-yl)-2-(2,6-dioxopiperidin-3-yl)isoindoline-1,3-dione] | > 100 nM | ≥ 100 nM |  |  | 
CNC(=O)COc1cc2cc(Nc3nc(N4CCC5(CC4)CC(CN4CCN(c6ccc7c(c6)C(=O)N(C6CCC(=O)NC6=O)C7=O)CC4)C5)ncc3Cl)ccc2n(C(C)C)c1=O (stereo not shown) [compound 483, 2-{[6-({5-chloro-2-[2-({4-[2-(2,6-dioxopiperidin-3-yl)-1,3-dioxo-2,3-dihydro-1H-isoindol-5-yl]piperazin-1-yl}methyl)-7-azaspiro[3.5]nonan-7-yl]pyrimidin-4-yl}amino)-2-oxo-1-(propan-2-yl)-1,2-dihydroquinolin-3-yl]oxy}-N-methylacetamide] |  |  | 50 to 70% | < 10 nM | 
CNC(=O)COc1cc2cc(Nc3nc(N4CCC(CN5CCN(c6ccc7c(c6)C(=O)N(C6CCC(=O)NC6=O)C7=O)CC5=O)CC4)ncc3Cl)ccc2n(C)c1=O (stereo not shown) [compound 196, 2-((6-((5-chloro-2-(4-((4-(2-(2,6-dioxopiperidin-3-yl)-1,3-dioxoisoindolin-5-yl)-2-oxopiperazin-1-yl)methyl)piperidin-1-yl)pyrimidin-4-yl)amino)-1-methyl-2-oxo-1,2-dihydroquinolin-3-yl)oxy)-N-methylacetamide] | 10 to 50 nM | 10 to 50 nM | 50 to 70% |  | 
CNC(=O)COc1cc2cc(Nc3nc(N4CCC5(CCN(CC6CCN(c7ccc8c(c7)C(=O)N(C7CCC(=O)NC7=O)C8=O)CC6)CC5)CC4)ncc3Cl)ccc2n(C(C)C)c1=O (stereo not shown) [compound 496, 2-{[6-({5-chloro-2-[9-({1-[2-(2,6-dioxopiperidin-3-yl)-1,3-dioxo-2,3-dihydro-1H-isoindol-5-yl]piperidin-4-yl}methyl)-3,9-diazaspiro[5.5]undecan-3-yl]pyrimidin-4-yl}amino)-2-oxo-1-(propan-2-yl)-1,2-dihydroquinolin-3-yl]oxy}-N-methylacetamide] |  |  | 50 to 70% | < 10 nM | 
CC(=O)COc1cc2cc(Nc3nc(N4CCC(C(=O)N5CCN(c6ccc7c(c6)C(=O)N(C6CCC(=O)NC6=O)C7=O)CC5)CC4)ncc3Cl)ccc2n(C)c1=O (stereo not shown) [compound 153, 5-(4-(1-(5-chloro-4-((1-methyl-2-oxo-3-(2-oxopropoxy)-1,2-dihydroquinolin-6-yl)amino)pyrimidin-2-yl)piperidine-4-carbonyl)piperazin-1-yl)-2-(2,6-dioxopiperidin-3-yl)isoindoline-1,3-dione] |  |  |  |  | IC50 (BCL6 [1]; [3]): 50 to 100 nM; Dmax (BCL6 [2]; maximum, class symbols A-C): ≥ 70%; DC50 (BCL6 [2]): < 10 nM
CNC(=O)COc1cc2cc(Nc3nc(N4CCN(C)C(COc5cccc6c5C(=O)N(C5CCC(=O)NC5=O)C6=O)C4)ncc3Cl)ccc2n(C)c1=O (stereo not shown) [compound 231, 2-((6-((5-chloro-2-(3-(((2-(2,6-dioxopiperidin-3-yl)-1,3-dioxoisoindolin-4-yl)oxy)methyl)-4-methylpiperazin-1-yl)pyrimidin-4-yl)amino)-1-methyl-2-oxo-1,2-dihydroquinolin-3-yl)oxy)-N-methylacetamide] | 50 to 100 nM | ≥ 100 nM |  |  | 
CNC(=O)COc1cc2cc(Nc3nc(N4CCC(CN5CCN(c6ccc7c(c6)C(=O)N(C6CCC(=O)NC6=O)C7=O)CC5)CC4)ccc3Cl)ccc2n(C)c1=O (stereo not shown) [compound 202, 2-((6-((3-chloro-6-(4-((4-(2-(2,6-dioxopiperidin-3-yl)-1,3-dioxoisoindolin-5-yl)piperazin-1-yl)methyl)piperidin-1-yl)pyridin-2-yl)amino)-1-methyl-2-oxo-1,2-dihydroquinolin-3-yl)oxy)-N-methylacetamide] | > 100 nM | 50 to 100 nM | < 50% |  | 
CNC(=O)COc1cc2cc(Nc3nc(N4CCN(CC5CCN(c6ccc(F)c(C(=O)NC7CCC(=O)NC7=O)c6)CC5)CC4)ncc3Cl)ccc2n(C)c1=O (stereo not shown) [compound 277, 5-[4-({4-[5-chloro-4-({1-methyl-3-[(methylcarbamoyl)methoxy]-2-oxo-1,2-dihydroquinolin-6-yl}amino)pyrimidin-2-yl]piperazin-1-yl}methyl)piperidin-1-yl]-N-(2,6-dioxopiperidin-3-yl)-2-fluorobenzamide] | < 10 nM | 10 to 50 nM | < 50% |  | 
CNC(=O)COc1cc2cc(Nc3nc(N4CCC5(CC4)CN(CC4CCN(c6cccc(C(=O)NC7CCC(=O)NC7=O)c6F)CC4)C5)ncc3Cl)ccc2n(C(C)C)c1=O (stereo not shown) [compound 450, 3-[4-({7-[5-chloro-4-({3-[(methylcarbamoyl)methoxy]-2-oxo-1-(propan-2-yl)-1,2-dihydroquinolin-6-yl}amino)pyrimidin-2-yl]-2,7-diazaspiro[3.5]nonan-2-yl}methyl)piperidin-1-yl]-N-(2,6-dioxopiperidin-3-yl)-2-fluorobenzamide] |  |  | ≥ 70% | < 10 nM | 
CNC(=O)COc1cc2cc(Nc3nc(N4CCC(O[C@H]5C[C@H](N6CCC(c7ccc8c(c7)C(=O)N(C7CCC(=O)NC7=O)C8=O)CC6)C5)CC4)ncc3Cl)ccc2n(C)c1=O (stereo partly shown) [compound 536, 2-({6-[(5-chloro-2-{4-[(1r,3r)-3-{4-[2-(2,6-dioxopiperidin-3-yl)-1,3-dioxo-2,3-dihydro-1H-isoindol-5-yl]piperidin-1-yl}cyclobutoxy]piperidin-1-yl}pyrimidin-4-yl)amino]-1-methyl-2-oxo-1,2-dihydroquinolin-3-yl}oxy)-N-methylacetamide] |  |  | ≥ 70% | < 10 nM | 
CNC(=O)COc1cc2cc(Nc3nc(N4CCC(C5(N6CCC(c7cc(OC)cc(C(=O)NC8CCC(=O)NC8=O)c7F)CC6)CC5)CC4)ncc3Cl)ccc2n(C)c1=O (stereo not shown) [compound 480, 3-[1-(1-{1-[5-chloro-4-({1-methyl-3-[(methylcarbamoyl)methoxy]-2-oxo-1,2-dihydroquinolin-6-yl}amino)pyrimidin-2-yl]piperidin-4-yl}cyclopropyl)piperidin-4-yl]-N-(2,6-dioxopiperidin-3-yl)-2-fluoro-5-methoxybenzamide] |  |  | < 50% | 10 to 50 nM | 
CNC(=O)COc1cc2cc(Nc3nc(N4CCC(O[C@H]5C[C@H](N6CCN(c7ccc8c(c7)C(=O)N(C7CCC(=O)NC7=O)C8=O)CC6)C5)CC4)ncc3Cl)ccc2n(C(C)C)c1=O (stereo partly shown) [compound 531, 2-({6-[(5-chloro-2-{4-[(1r,3r)-3-{4-[2-(2,6-dioxopiperidin-3-yl)-1,3-dioxo-2,3-dihydro-1H-isoindol-5-yl]piperazin-1-yl}cyclobutoxy]piperidin-1-yl}pyrimidin-4-yl)amino]-2-oxo-1-(propan-2-yl)-1,2-dihydroquinolin-3-yl}oxy)-N-methylacetamide] |  |  | < 50% | < 10 nM | 
CNC(=O)COc1cc2cc(Nc3nc(N4CCC(O[C@H]5C[C@H](N6CCN(c7cccc8c7C(=O)N(C7CCC(=O)NC7=O)C8=O)CC6)C5)CC4)ncc3Cl)ccc2n(C(C)C)c1=O (stereo partly shown) [compound 518, 2-({6-[(5-chloro-2-{4-[(1r,3r)-3-{4-[2-(2,6-dioxopiperidin-3-yl)-1,3-dioxo-2,3-dihydro-1H-isoindol-4-yl]piperazin-1-yl}cyclobutoxy]piperidin-1-yl}pyrimidin-4-yl)amino]-2-oxo-1-(propan-2-yl)-1,2-dihydroquinolin-3-yl}oxy)-N-methylacetamide] |  |  | ≥ 70% | 10 to 50 nM | 
CNC(=O)COc1cc2cc(Nc3nc(N(C)C)ncc3Cl)ccc2n(CCCOc2ccc3c(c2)C(=O)N(C2CCC(=O)NC2=O)C3=O)c1=O (stereo not shown) [compound 469, 2-[(6-{[5-chloro-2-(dimethylamino)pyrimidin-4-yl]amino}-1-(3-{[2-(2,6-dioxopiperidin-3-yl)-1,3-dioxo-2,3-dihydro-1H-isoindol-5-yl]oxy}propyl)-2-oxo-1,2-dihydroquinolin-3-yl)oxy]-N-methylacetamide] |  |  | < 50% | 10 to 50 nM | 
